Patent publication US11147801B2, “Methods of use for trisubstituted benzotriazole derivatives as dihydroorotate oxygenase inhibitors” (Aurigene Discovery Technologies Limited, priority 2017, dated 2021)

What was measured:
JYSE150 = experiment: Tumor cell line panel screen, 72 hrs; assay type: cell-based; details: Homo sapiens, JYSE150, esophageal squamous cell carcinoma
Description: (§1) A tumor cell line panel screen aimed at identifying tumor cell subsets that were particularly sensitive to inhibition of DHODH with Compound 1 was performed. Compound 1 is represented by the following structural formula: […]
(§2) These cell lines were treated with Compound 1 for a total of 72 hrs.
(§3) Table 1 is a list of some of the sensitive cell lines to Compound 1 along with GI50 values and max growth response. A maximum inhibition of 100 represents complete growth inhibition; a max inhibition value>100 represents cell killing.

MV411 = experiment: Tumor cell line panel screen, 72 hrs; assay type: cell-based; details: Homo sapiens, MV4-11, MV411, child acute myeloid leukemia
Description: as §1, §2, §3

OCILY8 = experiment: Tumor cell line panel screen, 72 hrs; assay type: cell-based; details: Homo sapiens, OCI-Ly8, OCILY8, diffuse large B cell lymphoma
Description: as §1, §2, §3

DU4475 = experiment: Tumor cell line panel screen, 72 hrs; assay type: cell-based; details: Homo sapiens, DU-4475, DU4475, triple negative breast cancer
Description: as §1, §2, §3

SUDHL5 = experiment: Tumor cell line panel screen, 72 hrs; assay type: cell-based; details: Homo sapiens, SU-DHL-5, SUDHL5, diffuse large B cell lymphoma
Description: as §1, §2, §3

KYSE510 = experiment: Tumor cell line panel screen, 72 hrs; assay type: cell-based; details: Homo sapiens, KYSE-510, KYSE510, esophageal squamous cell carcinoma
Description: as §1, §2, §3

MOLM13 = experiment: Tumor cell line panel screen, 72 hrs; assay type: cell-based; details: Homo sapiens, MOLM-13, MOLM13, acute myeloid leukemia
Description: as §1, §2, §3

MINO = experiment: Tumor cell line panel screen, 72 hrs; assay type: cell-based; details: Homo sapiens, mantle cell lymphoma
Description: as §1, §2, §3

SR786 = experiment: Tumor cell line panel screen, 72 hrs; assay type: cell-based; details: Homo sapiens, SR-786, SR786, anaplastic large cell lymphoma
Description: as §1, §2, §3

Ramos cells = experiment: Ramos proliferation assay (XTT); assay type: cell-based; details: Homo sapiens, 72 hrs
Description: Cell proliferation assay is a sensitive method for quantification of viable cells in cytotoxicity or proliferation assay. The XTT (2,3-bis[2-Methoxy-4-nitro-5-sulfophenyl]-2 H-tetrazolium-5-carboxyanilide inner salt) system is a means of measuring the activity of living cells via mitochondrial dehydrogenases. Mitochondrial dehydrogenases of viable cells cleave the tetrazolium ring of XTT, yielding orange formazon crystals which are soluble in aqueous solutions. The XTT solution is potentiated by the addition of an electron coupling agent, phenazine methosulphate (PMS) to the reaction. The resulting orange colour is spectrophotometrically measured at 450 nm. An increase or decrease in cell numbers results in a concomitant change in the amount of formazon formed, indicating the degree of cytotoxicity caused by the test material.
Dissolve 17.7 g IMDM (Iscove's Modified Dulbecco's Medium) powder, 1.5 g sodium bicarbonate pH 7.2-7.4 in 1 L MiliQ water, add 1% Pencilin/ Streptomycin and 10% FBS.
Dissolve 10.6 g Ham's F12 powder, 1.5 g sodium bicarbonate pH 7.2-7.4 in 1 L MiliQ water, add 1% Penicillin/Streptomycin. DMSO used as vehicle.
Ramos cells were re-suspended to a density of 1×10^5 cells/ ml in complete IMDM medium. 95 μL of this cell suspension was added to the 96-well plate to seed ˜10,000 cells per well. The plates were incubated at 37° C. under a humidified atmosphere of 5% CO2 for ˜1 hour before compound addition.
Test compounds (Refer to Table 1) were dissolved in 100% DMSO to generate a 2/6/10/20 mM stock solution. A 200× concentration of the required final concentrations was prepared in DMSO. 10 μL of each concentration (200×) was then diluted in 90 μL of serum-free Ham's F12 medium to get an intermediate concentration of 20× in medium. The DMSO concentration in this step is 10% (Intermediate dilution). 5 μL of each intermediate dilution was then added in triplicates in the previously seeded 96-well plate. The final DMSO concentration was 0.5% in the experimental wells. Cells treated with 0.5% DMSO served as positive control. 100 μL, of complete IMDM medium served as media blank for data analysis. 200 μL, of 1× PBS was added in all corner wells of the assay plate. Plates were then incubated for 72 hrs in an incubator with 5% CO2 at 37° C.
On termination day, 100 μl of XTT solution (1 mg/ml XTT supplemented with 25 μM PMS in Ham's F12 medium) was added to each well. Plates were incubated for 2 hrs. The amount of formazon produced was determined by reading the absorbance of the plate using VICTOR X5 multilabel plate reader at wavelength of 450 nm. The IC50 values were determined as concentrations that reduced cell viability by 50% and the curve was plotted with GraphPad Prism 6.0.
Percent (%) Inhibition was calculated by normalizing DMSO control values to 100% using the formula: % Inhibition=[…](Abs450test compound−blank)/(Abs450positive control−blank)*100
Test compound contains cells, test compound, IMDM medium and 0.5% DMSO
Positive control contains cells, IMDM medium and 0.5% DMSO
Blank contains IMDM medium

AML_5 tumor = experiment: Patient-derived AML xenograft model AML_5; assay type: in vivo, CB17 SCID mice; details: AML 5 patient-derived xenograft, 100 mg/kg BID PO
Description: (§4) A screen was next performed using a small number of mice/group to assess efficacy of Compound 1 in AML and DLBCL patient-derived xenograft models. Tumor-bearing mice (n=3/group) were treated with vehicle or Compound 1 at 100 mg/kg BID PO.

MOLM-13 tumors = experiment: MOLM-13 acute myeloid leukemia xenograft model; assay type: in vivo
Description: In vivo efficacy studies with Compound 1 were performed to assess the in vitro to in vivo translation of effects on blockade of DHODH and tumor cell growth inhibition. 1×10^6 MOLM-13 cells were implanted subcutaneously into CB17 SCID mice. Mice (n=15/group) were treated with vehicle or Compound 1 at 100 mg/kg BID PO once tumors reached an average of ˜150 mm^3. At end of the study, tissues were collected at the indicated timepoints post-last dose for pharmacokinetic (PK) and pathway biomarker analyses.

cancer lines = experiment: Cell growth assays with uridine supplemented into the medium (uridine rescue); assay type: cell-based
Description: To confirm that the effects of Compound 1 in impairing cell growth/viability were due to specific inhibition of DHODH, cell growth assays were performed with varying amounts of uridine supplemented into the medium.

AML_2 tumor = experiment: Patient-derived AML xenograft model AML_2; assay type: in vivo, CB17 SCID mice; details: 100 mg/kg BID PO
Description: as §4

Cc1ccccc1-c1ccc(-c2cc(C(=O)O)c3c(c2)nnn3C)cc1 [Compound 1, 1-methyl-5-(2′-methyl-[1,1′-biphenyl]-4-yl)-1H-benzo[d][1,2,3]triazole-7-carboxylic Acid]
GI50 (JYSE150): 100 nM
GI50 (MV411): 270 nM
GI50 (OCILY8): 20 nM
GI50 (DU4475): 100 nM
GI50 (SUDHL5): 20 nM
GI50 (KYSE510): 130 nM
GI50 (MOLM13): 60 nM
GI50 (MINO): 30 nM
GI50 (SR786): 50 nM
inhibition at 30 µM (Ramos cells; 30 μM, read-out: Maximum % Inhibition at 30 μM): 107%
IC50 (Ramos cells; XTT): 49 nM
TGI (AML_5 tumor): > 60%
Tolerability (MOLM-13 tumors; 100 mg/kg BID PO, CB17 SCID mice): well tolerated
Tumor growth inhibition (TGI) (MOLM-13 tumors; 100 mg/kg BID PO, MOLM-13 xenograft, 14 days): near complete tumor growth inhibition
Reduction of tumor uridine pools (MOLM-13 tumors; 100 mg/kg BID, MOLM-13 tumors, depending on the timepoint): ~60%
Tumor levels of dihydroorotate (DHO) (MOLM-13 tumors; 100 mg/kg BID, MOLM-13 tumors, over 12 hrs after last dose, baseline BQL<120 ng/g): dramatic increase
Pharmacokinetics profile in plasma and tumor (MOLM-13 tumors; 100 mg/kg BID, after last dose): drop in drug concentrations by 12 hrs
Rescue of growth effects by exogenous uridine (cancer lines; supraphysiologic uridine (25 μM and 100 μM), up to 10 μM of compound): completely rescued
Rescue of growth effects by exogenous uridine (cancer lines; uridine close to physiologic (5 μM)): partially rescued
TGI (AML_2 tumor): > 60%
